Data: ChEMBL document CHEMBL5678818, “Discovery of potent SOS1 inhibitors that block RAS activation via disruption of the RAS-SOS1 interaction” (Proc Natl Acad Sci U S A, 2019)

Experiments:
[1] = target: T1, Ankyrin repeat and protein kinase domain-containing protein 1 (Homo sapiens) (UniProt Q8NFD2); test: Inhibition of ANKK1 (unknown origin) assessed as residual activity at 1000 nM by KINOMEscan analysis relative to control
T1 sequence (whole entry): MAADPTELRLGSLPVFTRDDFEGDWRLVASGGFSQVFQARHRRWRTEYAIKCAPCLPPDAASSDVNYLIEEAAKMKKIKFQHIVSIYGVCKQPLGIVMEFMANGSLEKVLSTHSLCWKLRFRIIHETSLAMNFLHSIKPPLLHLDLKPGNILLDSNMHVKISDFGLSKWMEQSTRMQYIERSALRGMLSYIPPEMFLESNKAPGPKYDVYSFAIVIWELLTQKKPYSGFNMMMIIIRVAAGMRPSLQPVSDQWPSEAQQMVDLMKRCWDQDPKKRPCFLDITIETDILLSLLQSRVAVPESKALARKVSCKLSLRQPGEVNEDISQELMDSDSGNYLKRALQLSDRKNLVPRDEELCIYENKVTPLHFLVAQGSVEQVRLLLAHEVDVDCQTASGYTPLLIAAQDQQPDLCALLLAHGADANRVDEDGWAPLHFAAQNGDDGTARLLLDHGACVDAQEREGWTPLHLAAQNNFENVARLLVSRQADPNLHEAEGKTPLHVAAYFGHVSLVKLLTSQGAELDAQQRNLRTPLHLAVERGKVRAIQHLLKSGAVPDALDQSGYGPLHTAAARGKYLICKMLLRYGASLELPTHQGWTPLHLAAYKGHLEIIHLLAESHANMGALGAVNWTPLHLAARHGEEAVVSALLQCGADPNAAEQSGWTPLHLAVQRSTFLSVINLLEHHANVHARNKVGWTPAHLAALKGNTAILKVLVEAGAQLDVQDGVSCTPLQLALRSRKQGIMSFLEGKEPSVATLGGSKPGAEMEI

[2] = target: Tyrosine-protein kinase JAK1 (Homo sapiens) (UniProt P23458); test: Inhibition of JAK1 JH1 catalytic domain (unknown origin) assessed as residual activity at 1000 nM by KINOMEscan analysis relative to control
Chain of Tyrosine-protein kinase JAK1 (Homo sapiens) (P23458 whole entry, the tested form may be a part): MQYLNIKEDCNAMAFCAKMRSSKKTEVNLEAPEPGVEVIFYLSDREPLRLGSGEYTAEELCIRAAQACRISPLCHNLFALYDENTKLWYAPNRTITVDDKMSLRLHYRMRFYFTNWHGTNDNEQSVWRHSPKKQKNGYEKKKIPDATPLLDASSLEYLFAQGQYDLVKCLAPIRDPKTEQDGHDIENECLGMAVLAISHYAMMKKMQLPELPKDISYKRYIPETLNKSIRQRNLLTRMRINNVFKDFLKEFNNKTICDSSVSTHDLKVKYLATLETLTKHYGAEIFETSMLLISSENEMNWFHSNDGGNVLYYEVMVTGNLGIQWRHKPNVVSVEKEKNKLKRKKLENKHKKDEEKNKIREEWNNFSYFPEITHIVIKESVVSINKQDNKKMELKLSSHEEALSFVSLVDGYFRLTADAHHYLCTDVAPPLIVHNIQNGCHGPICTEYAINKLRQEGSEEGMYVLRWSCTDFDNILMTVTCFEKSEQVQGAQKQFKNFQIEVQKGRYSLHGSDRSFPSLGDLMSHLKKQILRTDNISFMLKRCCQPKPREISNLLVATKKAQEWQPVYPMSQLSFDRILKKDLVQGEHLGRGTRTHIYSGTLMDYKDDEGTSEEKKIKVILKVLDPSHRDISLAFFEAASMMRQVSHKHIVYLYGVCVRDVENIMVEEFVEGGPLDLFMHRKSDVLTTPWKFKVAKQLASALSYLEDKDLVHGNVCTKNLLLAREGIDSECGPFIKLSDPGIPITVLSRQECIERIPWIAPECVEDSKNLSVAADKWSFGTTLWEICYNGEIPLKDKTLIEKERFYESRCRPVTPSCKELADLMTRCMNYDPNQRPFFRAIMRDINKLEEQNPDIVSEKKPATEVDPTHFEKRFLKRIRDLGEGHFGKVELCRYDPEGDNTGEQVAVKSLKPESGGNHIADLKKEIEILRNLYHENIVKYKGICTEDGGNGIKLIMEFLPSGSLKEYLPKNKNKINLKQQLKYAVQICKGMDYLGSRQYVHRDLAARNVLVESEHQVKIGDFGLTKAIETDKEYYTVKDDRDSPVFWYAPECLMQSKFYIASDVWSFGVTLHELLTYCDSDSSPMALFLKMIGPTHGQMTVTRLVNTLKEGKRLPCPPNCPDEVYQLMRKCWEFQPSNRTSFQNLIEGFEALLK

[3] = tested on: Mast/stem cell growth factor receptor Kit (Homo sapiens), P10721 [V559D,V654A]; test: Inhibition of KIT V559D/V654A mutant (unknown origin) assessed as residual activity at 1000 nM by KINOMEscan analysis relative to control
Chain of Mast/stem cell growth factor receptor Kit (Homo sapiens), P10721 [V559D,V654A] (P10721 whole entry V559D/V654A): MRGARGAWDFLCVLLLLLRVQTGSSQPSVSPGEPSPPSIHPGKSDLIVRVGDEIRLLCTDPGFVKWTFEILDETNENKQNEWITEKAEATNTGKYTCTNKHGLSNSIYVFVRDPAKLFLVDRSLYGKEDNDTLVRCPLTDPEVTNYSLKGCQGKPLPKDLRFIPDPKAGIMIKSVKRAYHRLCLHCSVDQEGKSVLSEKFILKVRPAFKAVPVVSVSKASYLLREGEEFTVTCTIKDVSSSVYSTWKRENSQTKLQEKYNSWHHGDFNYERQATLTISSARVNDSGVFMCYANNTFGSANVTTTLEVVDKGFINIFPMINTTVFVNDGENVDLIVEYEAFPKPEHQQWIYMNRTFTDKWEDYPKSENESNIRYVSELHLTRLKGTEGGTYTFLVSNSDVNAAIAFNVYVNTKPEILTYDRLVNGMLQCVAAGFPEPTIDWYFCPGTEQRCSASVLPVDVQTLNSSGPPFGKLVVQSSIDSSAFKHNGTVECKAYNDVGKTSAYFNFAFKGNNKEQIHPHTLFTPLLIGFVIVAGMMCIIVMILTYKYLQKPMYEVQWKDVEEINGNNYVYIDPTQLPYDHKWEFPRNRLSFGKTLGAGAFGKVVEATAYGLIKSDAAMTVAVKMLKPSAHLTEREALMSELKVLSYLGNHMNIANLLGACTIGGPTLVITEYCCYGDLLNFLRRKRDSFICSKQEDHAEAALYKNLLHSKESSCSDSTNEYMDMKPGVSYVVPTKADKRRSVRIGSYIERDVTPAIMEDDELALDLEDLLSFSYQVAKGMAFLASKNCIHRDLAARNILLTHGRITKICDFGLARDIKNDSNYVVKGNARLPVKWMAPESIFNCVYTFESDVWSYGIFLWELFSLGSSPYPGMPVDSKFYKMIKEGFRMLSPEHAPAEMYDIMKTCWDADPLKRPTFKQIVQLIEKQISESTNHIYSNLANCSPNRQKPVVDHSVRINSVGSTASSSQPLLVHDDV

[4] = target: T2, Serine/threonine-protein kinase Nek3 (Homo sapiens) (UniProt P51956); test: Inhibition of NEK3 (unknown origin) assessed as residual activity at 1000 nM by KINOMEscan analysis relative to control
T2 sequence (whole entry): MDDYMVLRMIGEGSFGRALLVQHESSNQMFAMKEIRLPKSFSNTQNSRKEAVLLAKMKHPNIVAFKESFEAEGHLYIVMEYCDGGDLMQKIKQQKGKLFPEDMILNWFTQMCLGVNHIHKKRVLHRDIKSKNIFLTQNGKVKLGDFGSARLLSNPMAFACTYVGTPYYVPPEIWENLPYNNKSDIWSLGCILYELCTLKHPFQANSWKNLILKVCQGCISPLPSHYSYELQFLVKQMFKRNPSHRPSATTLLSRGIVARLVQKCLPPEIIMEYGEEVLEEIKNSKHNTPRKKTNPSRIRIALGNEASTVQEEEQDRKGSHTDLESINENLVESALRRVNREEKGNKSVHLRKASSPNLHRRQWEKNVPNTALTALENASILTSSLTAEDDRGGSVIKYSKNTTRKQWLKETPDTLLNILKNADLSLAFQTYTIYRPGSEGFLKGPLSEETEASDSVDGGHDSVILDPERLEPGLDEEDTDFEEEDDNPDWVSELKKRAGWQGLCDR

[5] = target: T3, Serine/threonine-protein kinase tousled-like 1 (Homo sapiens) (UniProt Q9UKI8); test: Inhibition of TLK1 (unknown origin) assessed as residual activity at 1000 nM by KINOMEscan analysis relative to control
T3 sequence (whole entry): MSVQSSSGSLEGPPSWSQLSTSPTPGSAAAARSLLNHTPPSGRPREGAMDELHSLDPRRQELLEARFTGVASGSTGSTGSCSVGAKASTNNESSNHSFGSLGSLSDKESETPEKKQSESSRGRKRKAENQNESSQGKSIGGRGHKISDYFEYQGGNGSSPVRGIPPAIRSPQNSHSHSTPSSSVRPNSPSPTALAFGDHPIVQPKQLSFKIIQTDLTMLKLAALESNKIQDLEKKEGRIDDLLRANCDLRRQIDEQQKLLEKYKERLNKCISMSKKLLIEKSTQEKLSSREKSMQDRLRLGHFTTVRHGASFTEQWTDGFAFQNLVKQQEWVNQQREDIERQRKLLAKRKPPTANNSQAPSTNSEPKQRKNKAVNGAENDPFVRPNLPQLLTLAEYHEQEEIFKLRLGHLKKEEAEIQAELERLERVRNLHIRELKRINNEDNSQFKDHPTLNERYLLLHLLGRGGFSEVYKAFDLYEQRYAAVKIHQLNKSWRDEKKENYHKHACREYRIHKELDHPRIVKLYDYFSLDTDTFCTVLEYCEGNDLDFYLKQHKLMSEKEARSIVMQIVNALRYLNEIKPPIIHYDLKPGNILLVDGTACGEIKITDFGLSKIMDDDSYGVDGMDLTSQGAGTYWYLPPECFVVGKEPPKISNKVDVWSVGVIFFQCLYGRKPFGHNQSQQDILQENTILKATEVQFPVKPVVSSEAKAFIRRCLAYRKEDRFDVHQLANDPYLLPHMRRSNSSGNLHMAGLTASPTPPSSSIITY

[6] = target: Vascular endothelial growth factor receptor 2 (Homo sapiens) (UniProt P35968); test: Inhibition of VEGFR2 (unknown origin) assessed as residual activity at 1000 nM by KINOMEscan analysis relative to control
Chain of Vascular endothelial growth factor receptor 2 (Homo sapiens) (P35968 whole entry): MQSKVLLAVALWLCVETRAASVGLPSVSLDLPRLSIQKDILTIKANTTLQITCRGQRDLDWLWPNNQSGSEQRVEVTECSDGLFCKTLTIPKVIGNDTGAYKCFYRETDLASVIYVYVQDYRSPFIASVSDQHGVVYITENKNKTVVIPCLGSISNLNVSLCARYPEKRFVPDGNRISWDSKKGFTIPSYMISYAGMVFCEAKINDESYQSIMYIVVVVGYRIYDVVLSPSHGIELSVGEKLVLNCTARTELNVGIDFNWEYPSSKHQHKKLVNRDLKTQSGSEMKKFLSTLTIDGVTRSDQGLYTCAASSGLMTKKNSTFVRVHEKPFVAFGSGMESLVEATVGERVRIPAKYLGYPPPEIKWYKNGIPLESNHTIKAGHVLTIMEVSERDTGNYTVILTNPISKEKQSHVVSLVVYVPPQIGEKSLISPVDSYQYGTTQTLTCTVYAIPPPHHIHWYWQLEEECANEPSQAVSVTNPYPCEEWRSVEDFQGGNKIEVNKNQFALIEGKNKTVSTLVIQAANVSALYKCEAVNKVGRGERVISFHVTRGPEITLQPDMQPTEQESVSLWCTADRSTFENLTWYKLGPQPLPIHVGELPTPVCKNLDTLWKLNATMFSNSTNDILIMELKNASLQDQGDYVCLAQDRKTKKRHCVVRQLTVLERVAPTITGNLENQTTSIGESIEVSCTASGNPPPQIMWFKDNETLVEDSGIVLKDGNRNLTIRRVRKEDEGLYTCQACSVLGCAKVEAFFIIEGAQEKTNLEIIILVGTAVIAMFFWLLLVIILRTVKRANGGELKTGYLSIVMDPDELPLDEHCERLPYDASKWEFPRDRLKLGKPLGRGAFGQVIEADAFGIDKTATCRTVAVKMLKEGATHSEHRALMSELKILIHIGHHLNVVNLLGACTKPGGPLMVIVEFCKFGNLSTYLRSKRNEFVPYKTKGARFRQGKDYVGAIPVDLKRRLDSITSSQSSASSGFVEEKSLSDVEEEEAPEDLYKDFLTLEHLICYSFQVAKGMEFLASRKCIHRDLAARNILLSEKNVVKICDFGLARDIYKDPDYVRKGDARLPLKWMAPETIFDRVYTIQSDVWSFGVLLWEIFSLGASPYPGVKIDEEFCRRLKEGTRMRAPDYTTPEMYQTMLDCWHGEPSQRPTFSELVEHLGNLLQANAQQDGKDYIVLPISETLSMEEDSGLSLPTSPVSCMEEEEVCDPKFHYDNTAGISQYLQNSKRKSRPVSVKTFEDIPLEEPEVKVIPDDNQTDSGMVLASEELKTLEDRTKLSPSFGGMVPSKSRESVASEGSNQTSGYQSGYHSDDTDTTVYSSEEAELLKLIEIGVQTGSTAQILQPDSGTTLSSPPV

| SMILES | Activity [1] [%] | Activity [2] [%] | Activity [3] [%] | Activity [4] [%] | Activity [5] [%] | Activity [6] [%] |
| --- | --- | --- | --- | --- | --- | --- |
| COc1cc2nc(C)nc(N[C@H](C)c3cccc(-c4cn[nH]c4)c3)c2cc1OC | 77 | 100 | 92 | 42 | 78 | 100 |
| COc1cc2ncnc(N[C@H](C)c3cccc4ccccc34)c2cc1OC | 96 | 87 | 100 | 93 | 100 | 78 |
